Ki data for one molecule are collected here from paper PMC6750108, “Crystal Structure of 4-Hydroxyphenylpyruvate Dioxygenase in Complex with Substrate Reveals a New Starting Point for Herbicide Discovery” (Research, 2019).

For assay [1], the target named is T1, AtHPPD (Arabidopsis thaliana, UniProt P93836).
T1 construct: gene HPD; full-length, N-terminal His tag (pET15b), E. coli BL21 (DE3); Ni-NTA, ion exchange, size exclusion; homodimers in crystal
T1 sequence (P93836 1-445): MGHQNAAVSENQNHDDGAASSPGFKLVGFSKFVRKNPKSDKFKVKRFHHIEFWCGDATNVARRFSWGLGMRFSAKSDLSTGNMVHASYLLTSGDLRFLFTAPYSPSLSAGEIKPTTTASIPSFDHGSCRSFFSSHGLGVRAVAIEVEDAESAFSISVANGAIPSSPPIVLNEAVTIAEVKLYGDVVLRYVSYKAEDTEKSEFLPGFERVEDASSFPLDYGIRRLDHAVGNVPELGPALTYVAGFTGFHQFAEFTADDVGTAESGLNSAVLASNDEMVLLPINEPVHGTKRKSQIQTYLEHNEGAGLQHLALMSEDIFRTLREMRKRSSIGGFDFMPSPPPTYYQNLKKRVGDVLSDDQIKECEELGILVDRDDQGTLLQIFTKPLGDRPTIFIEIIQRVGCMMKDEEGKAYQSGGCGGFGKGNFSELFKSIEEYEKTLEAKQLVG
In words: HGD-coupled assay at […] nm, progress curves. Type of assay: biochemical.

Assay [2] addresses T2, human HPPD (Homo sapiens, UniProt P32754).
T2 construct: gene HPD
Kind of assay: inhibition kinetics (supplement Method S2). The class given is biochemical.

The structures appear in SMILES notation.

T2 sequence (P32754 2-393): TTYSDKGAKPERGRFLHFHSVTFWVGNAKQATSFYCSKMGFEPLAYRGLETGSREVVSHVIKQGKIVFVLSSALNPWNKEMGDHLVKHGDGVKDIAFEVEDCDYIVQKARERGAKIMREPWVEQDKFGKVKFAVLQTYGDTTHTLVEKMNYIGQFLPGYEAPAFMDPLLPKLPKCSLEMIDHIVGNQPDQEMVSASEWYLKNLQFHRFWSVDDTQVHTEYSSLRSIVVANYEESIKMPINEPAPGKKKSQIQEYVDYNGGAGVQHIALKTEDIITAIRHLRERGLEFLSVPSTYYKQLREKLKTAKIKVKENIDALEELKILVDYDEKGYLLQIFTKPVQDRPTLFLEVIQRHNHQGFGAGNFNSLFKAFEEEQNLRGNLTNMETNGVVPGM

Consider `Cc1cccc(C)c1-n1c(=O)c2cc(C(=O)C3C(=O)CCCC3=O)ccc2n(C)c1=O` [Y13161], for which the Ki (as a rule, a dissociation constant, usually derived from enzyme kinetics or from competition with a known ligand) in assay [1] is 24.2 ± 1.01 nM; in assay [2], 179 ± 7.7 nM.
